Experimental data: patent publication US20120252801A1, “ANTIFUNGAL COMPOUNDS” (Katholieke Universiteit Leuven, K.U.Leuven R&D, priority 2009, published 2012)
In brackets after ≈: the same amount, converted by molar mass.

Legend:
C. albicans SC5314 [1] = assay: Minimal fungicidal concentration (MFC) against C. albicans; assay type: cell-based; conditions: Candida albicans, 24 h at 37° C. in PBS, less than 1% survival relative to DMSO control
Experimental: (§1) Two-fold dilution series of the compounds were prepared in 50% DMSO. 5 μl of these series were added to 95 μl PBS buffer inoculated with 1/500 cells of an overnight culture of either C. albicans, C. glabrata or C. krusei (final DMSO conc 2%). 2% DMSO served as negative control. After 24 h incubation at 37° C. of these cultures with the antifungal compounds in PBS, the cell cultures were plated on YPD agar and colony forming units (CFUs) were determined after incubation of the plates for 2 days. MFC was determined as the minimal concentration of a compound resulting in less than 1% survival of the yeast culture relative to the DMSO control.

C. glabrata = assay: Minimal fungicidal concentration (MFC) against C. glabrata; assay type: cell-based, Candida glabrata; conditions: Nakaseomyces glabratus; 24 h at 37° C. in PBS; less than 1% survival relative to DMSO control
Experimental: as §1

A. fumigatus = assay: Minimal inhibitory concentration (MIC) against A. fumigatus; assay type: cell-based; conditions: Aspergillus fumigatus; minimal concentration that inhibits growth
Aspergillus flavus = assay: Minimal inhibitory concentration (MIC) against A. flavus; assay type: cell-based; conditions: 24 h at 25° C. in ½ PDB, minimal concentration that inhibits growth
Experimental: (§2) To determine the MIC and MFC of a compound against Aspergillus flavus, Fusarium oxysporum or F. culmorum, a 2-fold dilution series of the compounds of the invention was incubated with the corresponding spore suspension in ½ PDB (potato dextrose broth, Difco) (2×10^4 spores/ml). […] MFC was determined as the minimal concentration of a compound resulting in less than 1% survival of the fungal culture relative to the DMSO control.

Fusarium oxysporum = assay: Minimal inhibitory concentration (MIC) against F. oxysporum; assay type: cell-based; conditions: 24 h at 25° C. in ½ PDB, minimal concentration that inhibits growth
Experimental: as §2

HepG2 cells = assay: Cellular cytostatic and/or cytotoxic effect on HepG2 cells; assay type: cell-based
Experimental: Evaluation of the cytostatic and/or cytotoxic effect of compounds on certain specific eukaryotic cells is a standard procedure and well known to the person skilled in the art. The effect of a selection of compounds of the invention on the proliferation of HepG2 cells was measured.

C. albicans SC5314 [2] = assay: C. elegans model for C. albicans infection; assay type: in vivo; conditions: different concentrations; FIG. 1
Experimental: The in vivo efficacy of the compounds was assessed in a C. elegans model for Candida infection as described by Breger et al., 2007 (Breger, J., et al. 2007. PLoS Pathog. 3:[…]). To this end, L4 larvae of a double mutant (glp-[…]) of C. elegans were used and fed for 4 h on C. albicans SC5314 agar plates (YPD agar plates on the surface inoculated with 100 μl of an overnight culture in YPD and incubated for 16 h at 37° C.). Worms were collected and washed with M9 buffer containing 3 g/L KH2PO4, 6 g/L Na2HPO4, 5 g/L NaCl, 1 mM MgSO4, 10 μg/mL cholesterol and 100 μg/mL Kanamycin. Forty-to-fifty worms were suspended in 1 mL in each well of 24-well microtiterplates, in the presence or absence (DMSO control) of the compounds of the invention (at different concentrations). Survival of the worms was monitored daily. The percentage survival of the worms in the presence or absence of antifungal compounds was calculated each day relative to the survival at day 0. Data are means of duplicate measurements and experiments were performed at least twice. As positive controls for efficacy testing, amphotericin B (10 μg/ml) and miconazole (10 μg/ml) in DMSO can be used.

C. albicans SC5314 [3] = assay: Mouse model for Candidiasis, fungal burden in the kidney; assay type: in vivo, BALB/c mice; conditions: 10 mg/kg intraperitonealy, once or twice a day; kidneys 5 days after infection; FIG. 2
From the text: An assay for in vivo efficacy measurement using mouse model for Candidiasis Fungal burden in the kidney of infected mice was used to evaluate the (prophylactic and/or therapeutic) activity of the compounds of the invention in murine models of infection by C. albicans, as described in the prior art (Tavares P M et al. Antimicrob Agents Chemother. 2008 December; 52(12):4522-5; Clemons K V, D A Stevens, J Antimicrob. Chemother. 2001; 47:183-186; Okawa Yet al., Biol Pharm Bull 2007, 30:1870-1873). In general, mice can be inoculated intravenously via lateral tail vein with 2×10^5 to […] C. albicans yeast cells suspended in saline. The compounds can be administered (for example intravenously or intraperitonealy or orally) before (for example 1 hour before) or after (for example 16 hours after) the challenge with C. albicans. After this first injection, four similar subsequent injections can be made with 24 h or other intervals. […] 100 μl-samples can be plated onto solid brain heart infusion (BHI) plates and C. albicans CFU (colony forming units) are counted after 2 days.
More specifically, the in vivo experiment was performed as following (in accordance with Tavares P M et al. Antimicrob Agents Chemother. 2008 December; 52(12):4522-5). […] 100 μl-samples were plated onto solid brain heart infusion (BHI) plates and C. albicans CFU (colony forming units) were counted after 2 days. […]

Row | MIC (A. fumigatus) [µg/mL] | MIC (Aspergillus flavus) [µg/mL] | MIC (Fusarium oxysporum) [µg/mL] | SMILES | MFC (C. albicans SC5314 [1]) [µg/mL] | MFC (C. glabrata) [µg/mL] | LD30 48 h (lethal dose for 30% of the cells in culture) (HepG2 cells) [µM] | % survival of C. albicans infected C. elegans (C. albicans SC5314 [2]) | activity against Candida albicans infection (CFU from kidneys) (C. albicans SC5314 [3])
1 | 1.6 (≈ 4.81 µM) | 12.5 (≈ 37.6 µM) | 50 (≈ 150 µM) | CCN1CC(C)(C)OC(=O)C1CC(=O)Nc1ccc(C(C)C)cc1 (centres unmarked) [CPD-06, 2-(4-ethyl-6,6-dimethyl-2-oxomorpholin-3-yl)-N-(4-isopropylphenyl)acetamide] | 12.5 (≈ 37.6 µM) | 25 (≈ 75.2 µM) | >25 | increase in survival | strong activity
2 | 3.12 (≈ 9.1 µM) | 25 (≈ 72.8 µM) | 50 (≈ 146 µM) | CCN1CC(C)(C)OC(=O)C1CC(=O)Nc1ccc2c(ccn2C)c1 (centres unmarked) [CPD-07, 2-(4-ethyl-6,6-dimethyl-2-oxomorpholin-3-yl)-N-(1-methyl-1H-indol-5-yl)acetamide] | 12.5 (≈ 36.4 µM) | 50 (≈ 146 µM) | >25 |  | 
3 | 6.25 (≈ 18.4 µM) | 25 (≈ 73.8 µM) | 50 (≈ 148 µM) | CCN1CC(C)(C)OC(=O)C1CC(=O)NCc1ccc(Cl)cc1 (centres unmarked) [CPD-08, N-(4-chlorobenzyl)-2-(4-ethyl-6,6-dimethyl-2-oxomorpholin-3-yl)acetamide] | 12.5 (≈ 36.9 µM) | 12.5 (≈ 36.9 µM) | >25 |  | 
4 | 25 (≈ 80.5 µM) | 50 (≈ 161 µM) | 50 (≈ 161 µM) | CCN1CC(C)(C)OC(=O)C1CC(=O)NCc1cccs1 (centres unmarked) [CPD-22, 2-(4-ethyl-6,6-dimethyl-2-oxomorpholin-3-yl)-N-(thiophen-2-ylmethyl)acetamide] | 25 (≈ 80.5 µM) | 50 (≈ 161 µM) | >25 |  | 
5 | 3.12 (≈ 9.22 µM) | 50 (≈ 148 µM) | 50 (≈ 148 µM) | CCN1CC(C)(C)OC(=O)C1CC(=O)NCc1cccc(Cl)c1 (centres unmarked) [CPD-49, N-(3-chlorobenzyl)-2-(4-ethyl-6,6-dimethyl-2-oxomorpholin-3-yl)acetamide] | 6.25 (≈ 18.4 µM) | 6.25 (≈ 18.4 µM) | >25 |  | 
6 | 12.5 (≈ 33.5 µM) | 50 (≈ 134 µM) | 50 (≈ 134 µM) | CCN1CC(C)(C)OC(=O)C1CC(=O)NCc1c(Cl)cccc1Cl (centres unmarked) [CPD-51, N-(2,6-dichlorobenzyl)-2-(4-ethyl-6,6-dimethyl-2-oxomorpholin-3-yl)acetamide] | 12.5 (≈ 33.5 µM) | 25 (≈ 67 µM) | >25 |  | 
